Measurements from publication PMC7403315, “Cyclic peptide FXII inhibitor provides safe anticoagulation in a thrombosis model and in artificial lungs” (Nature Communications, 2020).
“And” between values parts separate entries of the source, which are not always exact repeats. Identical values can stand only once. “Also recorded” adds a separate entry of the source. Residues, ends and D or L forms follow the SMILES beside them.

How the values were obtained:
[1] = target: T1, Mouse α-FXIIa (Mus musculus, UniProt Q80YC5); test: FXIIa protease inhibition assay with fluorogenic substrate Boc-Gln-Gly-Arg-AMC; assay type: biochemical; conditions: purified peptide without coumarin label; read-out: Ki mouse FXIIa
T1 construct: Mouse α-FXIIa; purchased Molecular Innovations MFXIIA
T1 sequence (Q80YC5 355-597 limits assumed): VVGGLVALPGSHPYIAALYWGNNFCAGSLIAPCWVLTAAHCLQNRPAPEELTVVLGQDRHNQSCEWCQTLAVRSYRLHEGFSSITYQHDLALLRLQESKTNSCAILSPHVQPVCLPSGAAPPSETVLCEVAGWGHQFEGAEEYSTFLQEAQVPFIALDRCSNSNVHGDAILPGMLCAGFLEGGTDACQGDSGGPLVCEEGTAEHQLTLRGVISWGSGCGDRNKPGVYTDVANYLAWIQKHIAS
T1 sequence (Q80YC5 20-354 limits assumed): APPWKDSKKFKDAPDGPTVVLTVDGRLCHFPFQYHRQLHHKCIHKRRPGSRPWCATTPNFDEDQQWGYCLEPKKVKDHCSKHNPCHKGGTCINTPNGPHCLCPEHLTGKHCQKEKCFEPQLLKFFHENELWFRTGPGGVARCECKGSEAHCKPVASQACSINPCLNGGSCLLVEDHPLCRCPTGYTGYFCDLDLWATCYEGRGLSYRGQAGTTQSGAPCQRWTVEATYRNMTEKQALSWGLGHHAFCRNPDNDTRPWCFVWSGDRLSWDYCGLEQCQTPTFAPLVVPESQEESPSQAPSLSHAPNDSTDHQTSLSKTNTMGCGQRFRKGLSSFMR
Description: (§1) In order to test the inhibitory activity of peptides without prior purification, we developed the following method. […] After solid-phase peptide synthesis, cleavage, and ether precipitation, the peptides were chemically cyclized and their Ki values were determined in a FXIIa activity assay using a fluorogenic substrate.
(§2) Protease inhibition assays
(§3) The inhibitory activity of peptides was determined by measuring the residual protease activity with a fluorogenic substrate. The assay was performed in buffer containing 10 mM Tris-Cl, pH […]
(§4) 1% (v/v) DMSO in a volume of 150 µl. FXIIa activity was measured with the fluorogenic substrate Boc-Gln-Gly-Arg-AMC (Bachem) at a final concentration of 50 µM. Mouse α-FXIIa (Molecular Innovations cat # MFXIIA) and human β-FXIIa (Molecular Innovations cat # HFXIIAB) were used at final concentrations of 0.4 nM. The reaction was pipetted as follows: 50 µl of bicyclic peptide in assay buffer were added to 50 µl of FXIIa in assay buffer and incubated for 10 minutes at 25°C before 50 µl of 150 µM fluorogenic substrate in assay buffer were added to measure the residual protease activity with an Infinite M200Pro fluorescence plate reader (excitation at 368 nm, emission at 467 nm; Tecan) for a period of 30 minutes with a read every minute at 25°C. The Tecan software i-control (version 1.1) was used for data analysis. Stock solutions of 1 mM bicyclic peptide were prepared by either dissolving the unpurified cyclization reaction with water or by dissolving purified and lyophilized peptide in water. The bicyclic peptides were serially diluted two-fold using assay buffer. Sigmoidal curves were fitted to the data using the following dose response equation (1), wherein x = peptide concentration, y = % protease activity, and p = Hill slope. IC50 values were derived from the fitted curve.
(§5) The inhibition constants (Ki) were calculated according to the equation of Cheng and Prusoff, Ki = IC50/(1+([S]0/Km), wherein IC50 is the functional strength of the inhibitor, [S]0 is the total substrate concentration, and Km is the Michaelis-Menten constant. […]
(§6) the substrate Boc-Gln-Gly-Arg-AMC. […]

[2] = target: T2, human β-FXIIa (Homo sapiens, UniProt P00748); test: as above; assay type: biochemical
T2 construct: human β-FXIIa (Molecular Innovations cat #); purchased Molecular Innovations HFXIIAB; host or cells: human blood
T2 sequence (P00748 373-615 limits assumed, other chains not shown): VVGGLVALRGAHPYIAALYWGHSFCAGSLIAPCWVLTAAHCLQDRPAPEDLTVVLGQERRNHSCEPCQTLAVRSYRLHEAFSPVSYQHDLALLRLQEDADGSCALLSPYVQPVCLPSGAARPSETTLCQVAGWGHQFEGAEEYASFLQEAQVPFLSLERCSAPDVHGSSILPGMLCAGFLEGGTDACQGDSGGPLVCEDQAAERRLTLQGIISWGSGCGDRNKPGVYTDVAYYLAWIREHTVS
Description: as §1, §2, §3, §4, §5, §6

[3] = Plasma stability assay (residual FXIIa inhibitory activity after plasma incubation); assay type: in vitro ADME, human; conditions: human, plasma
Description: Peptide (2 μl of 2 mM in H2O) was added to 398 μl of citrated human plasma (Innovative Research) to obtain a final peptide concentration of 10 μM. The mixture was incubated in a water bath at 37 °C. At different time points (0, 0.5, 1, 2, 4, 8, 12, 24, 48, and 96 h), samples of 30 μl were removed, diluted to 200 μl with aqueous buffer (10 mM Tris-HCl, pH 7.4, 150 mM NaCl, 10 mM MgCl2, 1 mM CaCl2), and incubated for 20 min at 65 °C to inactivate plasma proteases. The peptide/plasma samples were stored at −20 °C until the residual inhibitory activity of the peptides was measured in a FXIIa inhibition assay. […] IC50 values were derived from the fitted curve using an equation described in the Supplementary Methods. Residual inhibition in % was calculated using the equation IC50,0h/IC50,xh*100, wherein IC50,0h is the functional strength of the inhibitor at time point 0 and IC50,xh the functional strength of the inhibitor after one of the different plasma incubation periods mentioned above.

[4] = tested on: FXIIa; conditions: cited from earlier work
[5] = tested on: ferric chloride-induced thrombosis; test: FeCl3 injury thrombosis model in mesenteric arterioles in mice; assay type: in vivo, mouse
Description: A model of thrombosis in mesenteric arterioles using intravital microscopy was performed according to Angelillo-Scherrer A. et al.[46] with minor modifications. C57BL/6J wild-type mice (male, 10–20 weeks old, 25–30 g, Charles River) were injected intravenously with Rhodamine 6G (100 μl, 1 mM, ACROS Organics product 41902) to fluorescently label the platelets and leucocytes. The mice were injected subcutaneously over the shoulders with FXII900 (5 or 25 mg kg^−1, 0.5 mg ml^−1 in PBS, pH = 7.4) or the negative control FXII901 (5 or 25 mg kg^−1, 0.5 mg ml^−1 in PBS, pH = 7.4), or intravenously (retro-orbital) with 200 IU kg^−1 heparin, and subsequently anesthetized with ketamine (80 mg kg^−1) and xylazine (16 mg kg^−1) via intraperitoneal injection. An abdominal midline incision was made to expose the mesenteric arterioles which were imaged by intravital microscopy using a Mikron IVM500 microscope (Mikron Instruments) coupled with a 50 W mercury lamp (HBO 50 microscope illuminator, Zeiss) attached to combined blue (exciter 455DF70, dichroic 515DRLP, and emitter 515ALP) and green (exciter 525DF45, dichroic 560DRLP, and emitter 565ALP) filter blocks. […] The blood flow, clot formation and vessel occlusion were monitored for 20 or 25 min wherein images were recorded every minute using a digital video cassette recorder (DSR-11, Sony) and analyzed using ImageJ software (version 1.52). Mice were euthanized by final bleeding and cervical dislocation. Time to clot formation and full occlusion of the blood vessel were determined as follows. Clot formation was defined as the formation of a clear aggregation with a diameter of around 10 µm or larger. Occlusion was defined as a clot covering the full diameter of the vessel. Mice showing no speckled pattern at the site of FeCl3 application were assumed to be not injured at the blood vessel and were excluded from the analysis.

[6] = tested on: hemostasis (tail bleeding); test: Tail bleeding time and volume (tail transection); conditions: mice, 2 mm tail transection, peptides 25 mg kg^−1 SC, heparin 200 IU kg^−1 IV
Description: Mice (8- to 10-week-old) were anesthetized with pentobarbital (50 mg kg^−1, IP), treated with PBS (IV, retro-orbital), 200 IU kg^−1 heparin (IV, retro-orbital), 25 mg kg^−1 FXII900 (SC) or 25 mg kg^−1 FXII901 (SC), and put on a 37 °C heating pad. After 5 min, the distal tail was transected at 2 mm with a disposable surgical blade, and the diameter measured to confirm that it is > 1 mm. The tail was placed in a 50 ml falcon tube filled with phosphate-buffered saline (warmed to 37 °C) and the bleeding time was recorded. The total blood loss was determined by measuring the absorption at 540 nm.

[7] = tested on: coagulation in artificial lung; test: Extracorporeal circulation (veno-venous ECMO, artificial lung) in rabbits
Description: New Zealand white rabbits of 3.2–4.2 kg (Charles River) were anesthetized via intramuscular injections of ketamine (30 mg kg^−1) and xylazine (5 mg kg^−1). One of the ear veins was catheterized via a 24G winged catheter, and the rabbits were intubated with a 3.0 endotracheal tube. The animals were kept anesthetized throughout the four-hour experiment via inhaled isoflurane (2%) and were ventilated with a peak inspiratory pressure (PIP) of < 20 cmH2O, positive end expiratory pressure of 5 mmHg, tidal volume of 4–6 ml kg^−1, and a respiratory rate of 22–60 breaths per min. Tidal volume and respiratory rate were adjusted to maintain normal arterial blood gases and the listed PIP. Phenylephrine was applied intravenously at a rate of 0.5–5 μg kg^−1 min^−1 to maintain blood pressure. For monitoring blood pressure and collecting blood samples, the rabbits’ right or left carotid arteries were cannulated using a 16-gauge angiocatheter (Becton Dickinson) and were secured with silk ties. The device and circuit were first primed with filtered CO2 and then with saline (NaCl, 0.9% [w/v]) containing solumedrol (30 mg kg^−1). At this point, rabbits of the inhibitor-treated group were injected with 2 mg kg^−1 of FXII900 as a 2 mM solution in PBS (pH 7.4) via the ear vein and the circuit was connected to the rabbits via a venous/venous ECMO configuration using a 14-gauge angiocatheter (Becton Dickinson) and a 6″ pressure tubing that was cut to length from a 24″ pressure tubing (Edwards Lifesciences) in the right and left internal jugular veins, respectively. The circuit was placed in a roller pump (Cobe), and the blood flow was set to 45 ml per min. After connecting the extracorporeal circuit, rabbits of the inhibitor-treated group were infused with 0.075 mg kg^−1 min^−1 FXII900 via the ear vein for the entire duration of the study. Rabbits treated with heparin were initially infused with 60 IU h^−1 (100 IU ml^−1) starting before connection to the circuit. The drip rate was adjusted based on the following nomogram to maintain the ACT in a range between 220 and 300 s. ACT > 320 s: decrease infusion rate by 12 IU h^−1, 320 s > ACT > 300 s: decrease infusion rate by 6 IU h^−1, 300 s > ACT > 220 s: maintain heparin infusion rate, 220 s > ACT > 200 s: increase infusion rate by 6 IU h^−1, 200 s > ACT > 180 s: increase infusion rate by 12 IU h^−1, ACT < 180 s bolus 100 U (1 ml). After four hours, the animals were euthanized by potassium chloride (2 mg kg^−1, IV). At the end of the experiment, 5 ml of heparin was run through the artificial lung while it was still connected to the rabbits.

[8] = repeat study, 20 min, heparin 200 IU kg^−1, n = 10
[9] = ECMO 4 h, FXII900 2 mg kg^−1 bolus + 0.075 mg kg^−1 min^−1, heparin to ACT 220–300 s

## CC(C)C[C@@H]1NC(=O)[C@H](CCC(N)=O)NC(=O)[C@H](CCCNC(=N)N)NC(=O)[C@@H]2CSCCC(=O)N3CN(CN(C3)C(=O)CCSC[C@H](NC(=O)[C@@H](CO)NC(=O)[C@H](N)CCCNC(=N)N)C(=O)N[C@@H](Cc3ccccc3)C(=O)N[C@@H](CCCNC(=N)N)C(=O)N[C@@H](CC(C)C)C(=O)N3CCC[C@H]3C(=O)N2)C(=O)CCSC[C@@H](C(=O)N[C@@H](CCCNC(=N)N)C(N)=O)NC(=O)[C@H](CCCNC(=N)N)NC1=O [FXII850] (HELM PEPTIDE1{[dR].[dS].C.F.R.L.P.C.R.Q.L.R.C.R.[am]}|CHEM1{[O=C(CC[*:1])N1CN(C(=O)CC[*:2])CN(C(=O)CC[*:3])C1]}$PEPTIDE1,CHEM1,3:R3-1:R1|PEPTIDE1,CHEM1,8:R3-1:R2|PEPTIDE1,CHEM1,13:R3-1:R3$$$V2.0)
[1]
  Ki: 35 nM
[2]; inhibitor 0.390625 nM, 0.000390625 µM
  Residual activity of human FXIIa: 94.4127%
[2]; inhibitor 0.390625 nM, read-out: Residual activity of human FXIIa
  remaining activity at 0.000390625 µM: 97.1%
[2]; inhibitor 0.78125 nM, 0.00078125 µM
  Residual activity of human FXIIa: 86.6748%
[2]; inhibitor 0.78125 nM, read-out: Residual activity of human FXIIa
  remaining activity at 0.00078125 µM: 93.2%
[2]; inhibitor 1.5625 nM, 0.0015625 µM
  Residual activity of human FXIIa: 72.1433%
[2]; inhibitor 1.5625 nM, read-out: Residual activity of human FXIIa
  remaining activity at 0.0015625 µM: 82.9%
[2]; inhibitor 3.125 nM, 0.003125 µM
  Residual activity of human FXIIa: 57.4159%
[2]; inhibitor 3.125 nM, read-out: Residual activity of human FXIIa
  remaining activity at 0.003125 µM: 73.8%
[2]; inhibitor 6.25 nM, 0.00625 µM
  Residual activity of human FXIIa: 39.85%
[2]; inhibitor 6.25 nM, read-out: Residual activity of human FXIIa
  remaining activity at 0.00625 µM: 56.3%
[2]; inhibitor 12.5 nM, 0.0125 µM
  Residual activity of human FXIIa: 25.3131%
[2]; inhibitor 12.5 nM, read-out: Residual activity of human FXIIa
  remaining activity at 0.0125 µM: 37.4%
[2]; inhibitor 50 nM, 0.05 µM
  Residual activity of human FXIIa: 12.7513% and 5.338%
[2]; inhibitor 100 nM, 0.1 µM
  Residual activity of human FXIIa: 6.402% and 0.6734%
[2]; inhibitor 200 nM, 0.2 µM
  Residual activity of human FXIIa: 3.022% and 0%
[2]; inhibitor 400 nM, 0.4 µM
  Residual activity of human FXIIa: 1.539% and 0%
[2]; purified peptide without coumarin label, read-out: Ki human FXIIa
  Ki: 5 nM
[3]
  half-life at 10 μM: 18.5 h

## NC(N)=NCCC[C@H](NC(=O)[C@H](Cc1ccccc1)NC(=O)[C@H]1CCCN1)C(=O)CCl [PCK, H-D-Pro-Phe-Arg-chloromethylketone] (HELM PEPTIDE1{[dP].F.R.[ClC[*:1]]}$$$$V2.0)
[4]
  IC50: 180 nM

## heparin
[5]; 200 U kg-1
  Clot (time to clot formation), individual mice: 10 min (2×) and 15 min (3×) and 13 min
  Occlusion (time to full occlusion), individual mice: 19 min
[5]; [8]
  mice showing blood clotting: six
  mice showing vessel occlusion: one
[6]; 30 min monitored
  bleeding time: bled essentially continuously throughout the monitored 30 min period; also recorded: constantly bleeding throughout the 30 min period
[6]
  blood loss: medium to high blood loss; also recorded: either a small (3 mice) or large loss of blood (3 mice); also recorded: lost a large volume of blood
[7]; [9]
  aPTT prolongation: 1.5 fold
  activated clotting time (ACT) prolongation: 2 fold
[7]; ECMO, all time points
  bleeding time prolongation: 2 fold
[7]; ECMO, end of experiment
  volume of the clot in relation to the device volume: 5%
[7]; ECMO, throughout the experiment
  bleeding time (ear incision): 5 to 10 min
